tested on: OCI-LY10 (PI3Kδ dependent) cells; experiment: OCI-LY10 cell proliferation assay (MTS); format: cell-based; conditions: Homo sapiens, OCI-Ly10, 72 h, inhibition of OCI-LY10 cells proliferation, 72 h incubation, MTS readout at 490 nm
Method: MTS testing kit was purchased from Promega (Madison, WI, USA). The RPMI-1640, Fetal bovine serum and Penicillin-Streptomycin were purchased from BI (Biological Industries, Beit Haemek, Israel). Dimethyl sulfoxide (DMSO) was purchased from Sigma (St. Louis., MO, USA). OCI-LY10 cells were cultured in RPMI1640 supplemented with Penicillin-Streptomycin and 10% FBS.
To investigate whether a compound is able to inhibit the activity of PI3Kδ in cells, a mechanism-based assay using OCI-LY10 (PI3Kδ dependent) cells was developed. In this assay, inhibition of PI3Kδ was detected by the inhibition of OCI-LY10 cells proliferation. Cells were plated into 96-well plates at a density of 10000 cells/well. Plates were incubated at 37° C., with 5 % CO2 for 4 h. Compounds were serially diluted and added to the plates with the final compound concentrations as 10000, 3333.3, 1111.1, […], 123.5, 41.2, 13.7, 4.6 and 1.5 nM. Plates were incubated at 37° C., with 5 % CO2 for 72 h. 20 µl MTS was added into each well and the plates were incubated at 37° C., with 5 % CO2 for exactly 2 h. The absorbance was measured by a microplate reader at 490 nm. IC50 was calculated using GraphPad Prism 5.0 software.

| SMILES | IC50 [nM] |
| --- | --- |
| COc1ncc(-c2nn([C@@H](C)c3cc4scc(Cl)n4c(=O)c3-c3cccc(F)c3)c3ncnc(N)c23)cc1NS(C)(=O)=O [Example 79, (S)-N-(5-(4-amino-1-(1-(3-chloro-6-(3-fluorophenyl)-5-oxo-5H-thiazolo[3,2-a]pyridin-7-yl)ethyl)-1H-pyrazolo[3,4-d]pyrimidin-3-yl)-2-methoxypyridin-3-yl)methanesulfonamide] | 2 |
| Cc1csc2nc([C@H](C)n3nc(-c4cnc(OC(C)C)c(C#N)c4)c4c(N)ncnc43)c(-c3cccc(F)c3)c(=O)n12 [Example 100] | 1 |
| Cc1csc2nc([C@H](C)n3nc(-c4ccc(OC(C)C)c(F)c4)c4c(N)ncnc43)c(-c3cccc(F)c3)c(=O)n12 [Example 7, (S)-7-(1-(4-amino-3-(3-fluoro-4-isopropoxyphenyl)-1H-pyrazolo[3,4-d]pyrimidin-1-yl)ethyl)-6-(3-fluorophenyl)-3-methyl-5H-thiazolo[3,2-a]pyrimidin-5-one] | 4 |
| CC(C)Oc1ccc(-c2nn([C@@H](C)c3cc4scc(Cl)n4c(=O)c3-c3cccc(F)c3)c3ncnc(N)c23)cc1F [Example 3, (S)-7-(1-(4-amino-3-(3-fluoro-4-isopropoxyphenyl)-1H-pyrazolo[3,4-d]pyrimidin-1-yl)ethyl)-3-chloro-6-(3-fluorophenyl)-5H-thiazolo[3,2-a]pyridin-5-one] | 1 |
| Cc1csc2cc([C@H](C)n3nc(-c4ccc(OC5CC5)c(F)c4)c4c(N)ncnc43)c(-c3cccc(F)c3)c(=O)n12 [Example 16, (S)-7-(1-(4-amino-3-(4-cyclopropoxy-3-fluorophenyl)-1H-pyrazolo[3,4-d]pyrimidin-1-yl)ethyl)-6-(3-fluorophenyl) -3-methyl-5H-thiazolo[3,2-a]pyridin-5-one] | 26 |
| CC(C)Oc1ccc(-c2nn([C@H](c3cc4scc(Cl)n4c(=O)c3-c3cccc(F)c3)C3CC3)c3ncnc(N)c23)cc1F [Example 11, (S)-7-((4-amino-3-(3-fluoro-4-isopropoxyphenyl)-1H-pyrazolo[3,4-d]pyrimidin-1-yl)(cyclopropyl)methyl)-3-chlor o-6-(3-fluorophenyl)-5H-thiazolo[3,2-a]pyridin-5-one] | 1 |
| COc1ccc(-c2nn([C@@H](C)c3cc4scc(C)n4c(=O)c3-c3cccc(F)c3)c3ncnc(N)c23)cc1NS(C)(=O)=O [Example 5, (S)-N-(5-(4-amino-1-(1-(6-(3-fluorophenyl)-3-methyl-5-oxo-5H-thiazolo[3,2-a]pyridin-7-yl)ethyl)-1H-pyrazolo[3,4-d]pyrimidin-3-yl)-2-methoxyphenyl)methanesulfonamide] | 1 |
| COc1ccc(-c2nn([C@@H](C)c3cc4scc(Cl)n4c(=O)c3-c3ccccc3)c3ncnc(N)c23)cc1NS(C)(=O)=O [Example 44, (S)-N-(5-(4-amino-1-(1-(3-chloro-5-oxo-6-phenyl-5H-thiazolo[3,2-a]pyridin-7-yl)ethyl)-1H-pyrazolo[3,4-d]pyrimidin-3-yl)-2-methoxyphenyl)methanesul fonamide] | 40 |
| Cc1csc2cc([C@H](C)n3nc(-c4ccc(OC(C)C)c(F)c4)c4c(N)ncnc43)c(-c3ccccc3)c(=O)n12 [Example 2-S, (S)-7-(1-(4-amino-3-(3-fluoro-4-isopropoxyphenyl)-1H-pyrazolo[3,4-d]pyrimidin-1-yl)ethyl)-3-methyl-6-phenyl-5H-thiazolo[3,2-a]pyridin-5-one] | 1 |
| Cc1csc2cc([C@H](C)n3nc(-c4cnc(OC(C)C)c(F)c4)c4c(N)ncnc43)c(-c3ccccc3)c(=O)n12 [Example 20, (S)-7-(1-(4-amino-3-(5-fluoro-6-isopropoxypyridin-3-yl)-1H-pyrazolo[3,4-d]pyrimidin-1-yl)ethyl)-3-methyl-6-phenyl-5H-thiazolo[3,2-a]pyridin-5-one] | 1 |
| COc1ccc(-c2nn([C@@H](C)c3cc4scc(C)n4c(=O)c3-c3ccccc3)c3ncnc(N)c23)cc1NS(C)(=O)=O [Example 6, (S)-N-(5-(4-amino-1-(1-(3-methyl-5-oxo-6-phenyl-5H-thiazolo[3,2-a]pyridin-7-yl)ethyl)-1H-pyrazolo[3,4-d]pyrimidin-3-yl)-2-methoxyphenyl)meth anesulfonamide] | 1 |
| Cc1csc2cc([C@H](C)n3nc(-c4ccc(OC(F)F)c(F)c4)c4c(N)ncnc43)c(-c3ccccc3)c(=O)n12 [Example 15, (S)-7-(1-(4-amino-3-(4-(difluoromethoxy)-3-fluorophenyl)-1H-pyrazolo[3,4-d]pyrimidin-1-yl)ethyl)-3-methyl-6-ph enyl-5H-thiazolo[3,2-a]pyridin-5-one] | 1 |

same assay, conditions: inhibition of OCI-LY10 cells proliferation, 72 h incubation, MTS readout at 490 nm

| SMILES | IC50 [nM] |
| --- | --- |
| Cc1csc2nc([C@H](C)n3nc(-c4ccc(OC(C)C)nc4)c4c(N)ncnc43)c(-c3cccc(F)c3)c(=O)n12 [Example 102, (S)-7-(1-(4-amino-3-(6-isopropoxypyridin-3-yl)-1H-pyrazolo[3,4-d]pyrimidin-1-yl)ethyl)-6-(3-fluorophenyl)-3-methyl-5H-thiazolo[3,2-α]pyrimidin-5-one] | 70 |
| COc1ncc(-c2nn([C@@H](C)c3cc4scc(C)n4c(=O)c3-c3cccc(F)c3)c3ncnc(N)c23)cc1NS(C)(=O)=O [Example 77, (S)-N-(5-(4-amino-1-(1-(6-(3-fluorophenyl)-3-methyl-5-oxo-5H-thiazolo[3,2-a]pyridin-7-yl)ethyl)-1H-pyrazolo[3,4-d]pyrimidin-3-y1)-2-methoxypyridin-3-yl)methanesulfonamide] | 1 |
| Cc1csc2cc([C@H](C)n3nc(-c4ccc(OC5CC5)c(F)c4)c4c(N)ncnc43)c(-c3ccccc3)c(=O)n12 [Example 17, (S)-7-(1-(4-amino-3-(4-cyclopropoxy-3-fluoropheny1)-1H-pyrazolo[3,4-d]pyrimidin-1-yl)ethyl)-3-methyl-6-phenyl-5H-thiazolo[3,2-a]pyridin-5-one] | 65 |
| CC(C)Oc1ccc(-c2nn([C@@H](C)c3cc4scc(Cl)n4c(=O)c3-c3cccc(F)c3)c3ncnc(N)c23)cn1 [Example 87, (S)-7-(1-(4-amino-3-(6-isopropoxypyridin-3-yl)-1H-pyrazolo[3,4-d]pyrimidin-1-yl)ethyl)-3-chloro-6-(3-fluoropheny 1)-5H-thiazol[3,2-α]pyridin-5-one] | 64 |
| CC(C)Oc1ncc(-c2nn([C@@H](C)c3cc4scc(Cl)n4c(=O)c3-c3ccccc3)c3ncnc(N)c23)cc1C#N [Example 98, (S)-5-(4-amino-1-(1-(3-chloro-5-oxo-6-phenyl-5H-thiazolo[3,2-α]pyridin-7-y 1)ethyl)-1H-pyrazolo[3,4-d]pyrimidin-3-yl)-2-isopropoxynicotinonitrile] | 8 |
| Cc1csc2cc([C@H](C)n3nc(-c4ccc(OC(C)C)c(C#N)c4)c4c(N)ncnc43)c(-c3ccccc3)c(=O)n12 [Example 82, (S)-5-(4-amino-1-(1-(3-methyl-5-oxo-6-phenyl-5H-thiazolo[3,2-α]pyridin-7-yl)ethyl)-1H-pyrazolo[3,4-d]pyrimidin-3-yl)-2-isopropoxybenzonitrile] | 1 |
| CC(C)Oc1ncc(-c2nn([C@@H](C)c3cc4scc(Cl)n4c(=O)c3-c3cccc(F)c3)c3ncnc(N)c23)cc1C#N [Example 99, (S)-5-(4-amino-1-(1-(3-chloro-6-(3-fluorophenyl)-5-oxo-5H-thiazolo[3,2-α]pyridin-7-yl)ethyl)-1H-pyrazolo[3,4-d]pyrimidin-3-yl)-2-isopropoxynicotinoni trile] | 8 |
| Cc1csc2cc([C@H](C)n3nc(-c4cnc(OC(C)C)nc4)c4c(N)ncnc43)c(-c3ccccc3)c(=O)n12 [Example 88, (S)-7-(1-(4-amino-3-(2-isopropoxypyrimidin-5-yl)-1H-pyrazolo[3,4-d]pyrimidin-1-yl)ethyl)-3-methyl-6-phenyl-5H-thiazolo[3,2-α]pyridin-5-one] | 34 |
| CC(C)Oc1ccc(-c2nn([C@@H](C)c3cc4scc(Cl)n4c(=O)c3-c3cccc(F)c3)c3ncnc(N)c23)cc1C#N [Example 85, (S)-5-(4-amino-1-(1-(3-chloro-6-(3-fluorophenyl)-5-oxo-5H-thiazolo[3,2-α]pyridin-7-yl)ethyl)-1H-pyrazolo[3,4-d]pyrimidin-3-yl)-2-isopropoxybenzonitrile] | 8 |
| Cc1csc2cc([C@H](C)n3nc(-c4cnc(OC(C)C)c(C#N)c4)c4c(N)ncnc43)c(-c3ccccc3)c(=O)n12 [Example 96, (S)-5-(4-amino-1-(1-(3-methyl-5-oxo-6-phenyl-5H-thiazolo[3,2-α]pyridin-7-yl)ethyl)-1H-pyrazolo[3,4-d]pyrimidin-3-yl)-2-isopropoxynicotinonitrile] | 21 |
| Cc1csc2cc([C@H](C)n3nc(-c4cnc(OC(C)C)c(C#N)c4)c4c(N)ncnc43)c(-c3cccc(F)c3)c(=O)n12 [Example 97, (S)-5-(4-amino-1-(1-(6-(3-fluoropheny 1)-3-methyl-5-oxo-5H-thiazolo[3,2-α]pyridin-7-yl)ethyl)-1H-pyrazolo[3,4-d]pyrimidin-3-yl)-2-isopropoxynicotinoni trile] | 44 |
| Cc1csc2cc(C(C)n3nc(-c4ccc(OC(C)C)c(F)c4)c4c(N)ncnc43)c(-c3ccccc3)c(=O)n12 (stereo not drawn) [Example 2, 7-(1-(4-amino-3-(3-fluoro-4-isopropoxyphenyl)-1H-pyrazolo[3,4-d]pyrimidin-1-yl)ethyl)-3-methyl-6-phenyl-5H-thiazolo[3,2-a]pyridin-5-one] | 2 |

Reference: patent publication US20230174556A1, “COMPOUNDS AS PROTEIN KINASE INHIBITORS” (Fochon Biosciences, Ltd., priority 2020, published 2023)
